In patent US8895746B2 (University of Central Florida Research Foundation, Inc., priority 2009, dated 2014):
Where two headings read alike, the source gives them in different places. One block for each compound: values may come before it. Square brackets hold non-standard residues; d marks the D form. Ends that are not written are not given here. Peptide text beside a SMILES is read from it. pY = N[C@@H](Cc1ccc(OP(=O)(O)O)cc1)C(=O)O

How the values were obtained:
Stat3 [1] = target: T1, Stat3 (Mus musculus, UniProt P42227); experiment: Fluorescence Polarization assay, Stat3 binding to 5-carboxyfluorescein-GpYLPQTV-NH2 probe; parameters: Coding regions for the murine Stat3 protein; made in house; host or cells: E. coli BL21(DE3); species or system murine
T1 sequence (P42227 whole entry, the tested form may be a part): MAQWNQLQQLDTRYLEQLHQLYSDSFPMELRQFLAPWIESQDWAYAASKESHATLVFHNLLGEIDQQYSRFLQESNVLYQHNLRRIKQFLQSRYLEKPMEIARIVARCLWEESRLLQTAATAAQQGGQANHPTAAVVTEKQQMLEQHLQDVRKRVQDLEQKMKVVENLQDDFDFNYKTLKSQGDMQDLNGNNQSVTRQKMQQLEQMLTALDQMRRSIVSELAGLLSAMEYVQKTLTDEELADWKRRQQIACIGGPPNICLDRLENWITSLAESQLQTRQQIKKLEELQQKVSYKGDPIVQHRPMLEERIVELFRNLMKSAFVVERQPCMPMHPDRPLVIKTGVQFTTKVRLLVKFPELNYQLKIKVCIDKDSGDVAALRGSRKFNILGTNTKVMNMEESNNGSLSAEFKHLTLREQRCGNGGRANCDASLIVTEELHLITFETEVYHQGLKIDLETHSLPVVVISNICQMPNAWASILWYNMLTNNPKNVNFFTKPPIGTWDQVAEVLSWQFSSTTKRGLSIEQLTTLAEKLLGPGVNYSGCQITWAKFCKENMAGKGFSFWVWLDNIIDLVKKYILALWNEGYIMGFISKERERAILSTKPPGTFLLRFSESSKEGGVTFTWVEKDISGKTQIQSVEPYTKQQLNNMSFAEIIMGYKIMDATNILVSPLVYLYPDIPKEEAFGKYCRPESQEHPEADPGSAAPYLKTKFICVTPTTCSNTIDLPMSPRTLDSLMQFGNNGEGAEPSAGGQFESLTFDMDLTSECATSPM
Procedure: (§1) Coding regions for the murine Stat3 protein and Stat3 SH2 domain were amplified by PCR and cloned into vectors pET-44 Ek/LIC (Novagen) and pET SUMO (Invitrogen), respectively.
Fluorescence Polarization (FP) Assay was conducted as previously reported (23), with some modification using the phospho-peptide, 5-carboxyfluorescein-GpYLPQTV-NH2 (phosphorylated SEQ ID NO:7) (where pY represents phospho-Tyr) as probe and Stat3. The FP assay was used to evaluate the binding of agents to Stat3 and to determine the ability to disrupt the Stat3:pTyr peptide interaction. A fixed concentration of the fluorescently-labeled peptide probe (10 nM) was incubated with increasing concentration of the Stat3 protein for 30 min at room temperature in the buffer, 50 mM NaCI, 10 mM HEPES, 1 mM EDTA, 0.1% Nonidet P-40, and the fluorescent polarization measurements were determined using the POLARstar Omega (BMG LABTECH, Durham, N.C.), with the set gain adjustment at 35 mP. The Z′ value was derived per the equation Z′=1−(3 SDbound+3 SD free)/(mPbound−mPfree), where SD is the standard deviation and mP is the average of fluorescence polarization. In the bound state, 10 nM 5-carboxyfluorescein-GpYLPQTV-NH2 (phosphorylated SEQ ID NO:7) was incubated with 150 nM purified Stat3 protein, while the free (unbound) state was the same mixture, but incubated with an additional 10 IJM unlabeled Ac-GpYLPQTV-NH2 (phosphorylated SEQ ID NO:7). For evaluating agents, Stat3 protein (150 nM) was incubated with serial concentrations of S31-201.1066 at 30° C. for 60 min in the indicated assay buffer conditions. Prior to the addition of the fluorescence probe, the protein:S31-201.1066 mixtures were allowed to equilibrate at room temperature for 15 min. Probe was added at a final concentration of 10 nM and incubated for 30 min at room temperature following which the FP measurements were taken using the POLARstar Omega, with the set gain adjustment at 35 mP.
The FP assay was used to further test the computational modeling prediction of the ability of S31-201.1066 to disrupt Stat3 interaction with its cognate pTyr peptide.

Stat3 [2] = target: T1, Stat3; parameters: endogenous in cells; host or cells: NIH3T3/v-Src mouse fibroblasts (nuclear extract); settings: read-out: IC50, disruption of Stat3 DNA-binding activity in vitro; previously reported (22); cited from earlier work
Stat3 [3] = target: T1, Stat3; parameters: Coding regions for the murine Stat3 protein; made in house; host or cells: E. coli BL21(DE3); settings: cited from earlier work
His-tagged Stat3 = target: T2, His-tagged Stat3 (Mus musculus, UniProt P42227); experiment: Surface Plasmon Resonance analysis of binding to immobilized His-tagged Stat3; parameters: species or system murine
T2 construct: Coding regions for the murine Stat3 protein; made in house; host or cells: E. coli BL21(DE3)
T2 sequence (P42227 whole entry): as the sequence (P42227 whole entry, the tested form may be a part) above
Source text: as §1
Clones were sequenced to verify the correct sequences and orientation. His-tagged recombinant proteins were expressed in BL21(DE3) cells, and purified on Ni-ion sepharose column.
SensiQ and its analysis software Qdat (ICX Technologies, Oklahoma City, Okla.) were used to analyze the interaction between agents and the Stat3 protein and to determine the binding affinity. Purified Stat3 was immobilized on a HisCap Sensor Chip by injecting 50 µg/ml of Stat3 onto the chip. […] The association and dissociation rate constants were calculated using the Qdat software. The ratio of the association and dissociation rate constants was determined as the affinity (KD).
To provide definitive evidence of direct binding to Stat3, biophysical studies were performed. H1s-tagged Stat3 protein (or SH2 domain; 50 ng) was immobilized on a Ni-NTA sensor chip surface for Surface Plasmon Resonance analysis of the binding of 531201.1066 as the analyte. Association and dissociation measurements were taken and the binding affinity of S31-201.1066 for Stat3 was determined using Qdat software.

Stat3 [4] = target: T1, Stat3; experiment: Stat3 DNA-binding assay in vitro (EMSA, hSIE probe), nuclear extracts of NIH3T3/v-Src; type: biochemical; parameters: endogenous in cells; host or cells: NIH3T3/v-Src mouse fibroblasts (nuclear extract); settings: 30 min pre-incubation at room temperature, read-out: IC50, inhibition of Stat3 DNA-binding activity in vitro
Procedure: Nuclear extract preparations and electrophoretic mobility shift assay (EMSA) were carried out as previously described (28,33). […] Except where indicated, nuclear extracts were pre-incubated with compound for 30 min at room temperature prior to incubation with the radiolabeled probe for 30 min at 30° C. before subjecting to EMSA analysis.

[5] = test system: NIH3T3/v-Src, MDA-MB-231 and Panc-1 cells; settings: previously reported (18); cited from earlier work

Compound: CC(C)C[C@H](NC(=O)[C@H](Cc1ccc(OP(=O)(O)O)cc1)NC(=O)CN)C(=O)N1CCC[C@H]1C(=O)N[C@@H](CCC(N)=O)C(=O)N[C@H](C(=O)N[C@H](C(N)=O)C(C)C)[C@@H](C)O [GpYLPQTV-NH2] (H-G[pY]LPQTV-NH2)
IC50 (Stat3 [1]; 150 nM Stat3, 10 nM probe, read-out: IC50, disruption of Stat3 binding to pTyr peptide probe): 300 nM
IC50 (Stat3 [2]): 150 nM
IC50 (Stat3 [3]; read-out: IC50, reported, reported (21)): 290 ± 63 nM
IC50 (Stat3 [3]; read-out: IC50 in FP assay, previously reported value, previously reported (23)): 250 ± 30 nM
Kd (Stat3 [3]; read-out: affinity for Stat3, reported, reported (23)): 150 ± 10 nM
Kd (His-tagged Stat3): 24 nM

IC50 (Stat3 [4]): 45000 nM
Compound: Cc1ccc(S(=O)(=O)N(C)CC(=O)N(Cc2ccc(C3CCN(c4ccc(C#N)cc4)CC3)cc2)c2ccc(C(=O)O)c(O)c2)cc1 [S3I-201.2096]

Compound: Cc1ccc(S(=O)(=O)OCC(=O)Nc2ccc(C(=O)O)c(O)c2)cc1 [S3I-201]
concentration of antitumor cell activity previously reported for the lead agent [5]: 100 µM

effect on the fluorescent polarization signal (Stat3 [1]; data not shown): no evidence of effect
binding to Stat3 (SPR) (His-tagged Stat3; SPR, immobilized His-Stat3): little evidence of significant binding
Compound: GYLPQTV-NH2 [reference compound]
